Measurements published in PubChem BioAssay (NCI).
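Grown in 96-well plates, cells were treated for 48 hours with each compound at five concentrations. Insufficient inhibition: endpoint recorded as highest concentration tested. GI50 marks 50% less growth. TGI marks complete inhibition of growth.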

Key:
Assay in all cases: NCI anticancer screen, dose series, 48 h
RXF 393 renal = system: RXF 393 renal
UO-31 renal = system: UO-31 renal
HCC-2998 colon = system: HCC-2998 colon
SF-295 CNS = system: SF-295 CNS
HOP-92 NSCLC = system: HOP-92 NSCLC
SF-268 CNS = system: SF-268 CNS
IGROV1 ovarian = system: IGROV1 ovarian
HCT-15 colon = system: HCT-15 colon
MDA-MB-435 = system: MDA-MB-435
MDA-MB-231 breast = system: MDA-MB-231 breast
CAKI-1 renal = system: CAKI-1 renal
ACHN renal = system: ACHN renal
DU-145 prostate = system: DU-145 prostate
OVCAR-4 ovarian = system: OVCAR-4 ovarian
OVCAR-3 ovarian = system: OVCAR-3 ovarian
BT-549 breast = system: BT-549 breast
NCI-H23 lung = system: NCI-H23 lung
OVCAR-8 ovarian = system: OVCAR-8 ovarian
SW-620 colon = system: SW-620 colon
SNB-75 CNS = system: SNB-75 CNS
KM12 colon = system: KM12 colon
HS 578T breast = system: HS 578T breast
PC-3 prostate = system: PC-3 prostate
SR leukemia = system: SR leukemia
NCI/ADR-RES ovarian = system: NCI/ADR-RES ovarian
U251 CNS = system: U251 CNS
NCI-H460 lung = system: NCI-H460 lung
A498 renal = system: A498 renal
SF-539 CNS = system: SF-539 CNS
786-0 renal = system: 786-0 renal
OVCAR-5 ovarian = system: OVCAR-5 ovarian
HCT-116 colon = system: HCT-116 colon

In the case of CCC(C)C1NC(=O)c2nc(oc2-c2ccccc2)-c2csc(n2)-c2csc(n2)-c2nc(oc2C)-c2coc(n2)CNC(=O)C(C(C)CC)NC1=O (configuration not stated), the GI50 (RXF 393 renal) is reported as 0.0334 µM, the TGI (RXF 393 renal) is reported as 0.166 µM and the GI50 (UO-31 renal) is reported as 0.0515 µM. The TGI (UO-31 renal) was 0.185 µM, the GI50 (HCC-2998 colon) was 0.0543 µM and the TGI (HCC-2998 colon) was 0.249 µM. It also gave a GI50 (SF-295 CNS) of 0.0469 µM, a TGI (SF-295 CNS) of 0.178 µM and a GI50 (HOP-92 NSCLC) of 0.0198 µM. For the same compound, the TGI (HOP-92 NSCLC) was 0.134 µM, the GI50 (SF-268 CNS) was 0.0249 µM and the TGI (SF-268 CNS) was 0.154 µM. The GI50 (IGROV1 ovarian) was 0.0263 µM, the TGI (IGROV1 ovarian) was 0.122 µM and the GI50 (HCT-15 colon) was 0.0361 µM. It also gave a TGI (HCT-15 colon) of 0.18 µM, a GI50 (MDA-MB-435) of 0.0464 µM and a TGI (MDA-MB-435) of 0.163 µM. The GI50 (MDA-MB-231 breast) was 0.035 µM, the TGI (MDA-MB-231 breast) was 0.135 µM and the GI50 (CAKI-1 renal) was 0.0371 µM. It also gave a TGI (CAKI-1 renal) of 0.151 µM, a GI50 (ACHN renal) of 0.0188 µM and a TGI (ACHN renal) of 0.114 µM. The GI50 (DU-145 prostate) was 0.0218 µM, the TGI (DU-145 prostate) was 0.0658 µM and the GI50 (OVCAR-4 ovarian) was 0.0258 µM. The TGI (OVCAR-4 ovarian) was 0.0982 µM, the GI50 (OVCAR-3 ovarian) was 0.0201 µM and the TGI (OVCAR-3 ovarian) was 0.0642 µM. The GI50 (BT-549 breast) was 0.0659 µM, the TGI (BT-549 breast) was 0.204 µM and the GI50 (NCI-H23 lung) was 0.04 µM. The TGI (NCI-H23 lung) was 0.155 µM, the GI50 (OVCAR-8 ovarian) was 0.0216 µM and the TGI (OVCAR-8 ovarian) was 0.182 µM. It also gave a TGI (SW-620 colon) of 0.0324 µM, a GI50 (SNB-75 CNS) of 0.0354 µM and a TGI (SNB-75 CNS) of 0.175 µM. For the same compound, the GI50 (KM12 colon) was 0.0223 µM, the TGI (KM12 colon) was 0.119 µM and the GI50 (HS 578T breast) was 0.0424 µM. For the same compound, the TGI (HS 578T breast) was 0.218 µM, the GI50 (PC-3 prostate) was less than 0.0137 µM and the TGI (PC-3 prostate) was 0.116 µM. It also gave a GI50 (SR leukemia) of 0.0327 µM, a TGI (SR leukemia) of 0.212 µM and a GI50 (NCI/ADR-RES ovarian) of 0.278 µM. For the same compound, the TGI (NCI/ADR-RES ovarian) was 2.38 µM, the GI50 (U251 CNS) was 0.0126 µM and the TGI (U251 CNS) was 0.0492 µM. The GI50 (NCI-H460 lung) was 0.0102 µM, the TGI (NCI-H460 lung) was 0.0268 µM and the GI50 (A498 renal) was 0.16 µM. For the same compound, the TGI (A498 renal) was 0.343 µM, the GI50 (SF-539 CNS) was 0.111 µM and the TGI (SF-539 CNS) was 0.239 µM. For the same compound, the GI50 (786-0 renal) was 0.0499 µM, the TGI (786-0 renal) was 0.172 µM and the GI50 (OVCAR-5 ovarian) was 0.0515 µM. The TGI (OVCAR-5 ovarian) was 0.189 µM and the TGI (HCT-116 colon) was 0.0335 µM.
